{"source": "patent US20230052403A1", "about": "“MIXTURES COMPRISING A SOLID CARRIER COMPRISING AN UREASE INHIBITOR AND A FURTHER SOLID CARRIER COMPRISING A NITRIFICATION INHIBITOR” (BASF SE, priority 2020, published 2023)", "tested_on": "urease", "note": "Like-named read-outs stand apart in the source and are kept apart here.", "description": "The urea-stabilizing effect detected as the volatile NH3 losses from soil surface applied urea:\n176 g air dried soil is filled into 500 mL laboratory bottle, which is then be watered with de-ionized water up to 50% of its water holding capacity and incubated at room temperature (about 21° C.) for 24 h.\nUrea granules are evenly distributed on the soil in each bottle. Each granule is treated with 5 μL of the respective products, containg the compositions and mixtures of the invention in the appropriate concentrations. N amount applied was 80 mg per bottle.\nNH3 free air blows constantly at a rate of about 4 L per min. through the bottle which bubbles through a scrubber solution which is periodically renewed and analyzed for NH4^+ with an autoanalyzer."}
{"smiles": "CCCCNP(N)(N)=S", "note": "[NBPT, N-(n-butyl)thiophosphoric acid triamide]", "values": [{"measurement": "reduction of NH3—N losses (UI effect), in words", "setting": "Piammon, UI and DMPP on the same granules", "result": "Nearly no reduction of NH3—N losses"}, {"measurement": "stability of the urease inhibitor, in words", "setting": "UI and DMPP on the same Piammon granules", "result": "destroyed by DMPP"}, {"measurement": "stability of the urease inhibitor, in words", "setting": "UI and DMPP on the same urea granules", "result": "destroyed by DMPP"}, {"measurement": "reduction of NH3—N losses (UI effect), in words", "setting": "UI applied on Piammon granules only as well as mixed with DMPSA-treated AS granules", "result": "Significant reduction of NH3—N losses"}, {"measurement": "reduction of NH3—N losses (UI effect), in words", "setting": "UI applied on urea granules only and mixed with DMPP-treated AS granules", "result": "Significant reduction of NH3—N losses"}, {"measurement": "reduction of NH3—N losses (UI effect), in words", "setting": "UI applied on urea granules only and mixed with DMPP-treated urea granules", "result": "Significant reduction of NH3—N losses"}, {"measurement": "reduction of NH3—N losses (UI effect), in words", "setting": "UI applied on urea granules only as well as mixed with DMPSA-treated urea granules", "result": "Significant reduction of NH3—N losses"}, {"measurement": "reduction of NH3—N losses (UI effect), in words", "setting": "urea, UI and DMPP on the same urea granules", "result": "No reduction of NH3—N losses"}]}
